Data as given in a melting point compilation (Tetko et al.; mined from patent text by program, amines drawn as free bases though some values may be those of a salt).

In the case of CC(C)C12COc3cc(Cl)ccc3C1=NN(C(Cl)=Nc1ccc(C(F)(F)F)cc1)C2 (stereo unspecified), the melting point is reported as 148 to 149 °C.
COCC(=O)OC1(C(=O)COC(C)=O)CCC2C3CC(C)C4=CC(=O)C=CC4(C)C3C(O)CC21C (stereo unspecified) gave a melting point of 150 to 152 °C.
With O=C(O)Cc1cn(C(=O)c2cccc(C(F)(F)F)c2)c2cc(Cl)ccc12 the melting point was 194 to 196 °C.
In the case of Cc1nc2c(OCc3cccs3)cccn2c1CC#N, the melting point is reported as 155 to 157 °C.
In the case of NC(=O)OCCn1nccc1-c1ccc(Oc2ccc(F)cc2)cc1, the melting point is reported as 120 to 125 °C.
In the case of O=c1c2ccccc2c(-c2ccccc2)cn1CCCO, the melting point is reported as 84 °C.
For CCc1noc(-c2ccccc2)c1-c1ccc(S(N)(=O)=O)cc1, the melting point was 167 °C.
O=C(O)c1ccccc1-c1nc(-c2ccc(Cl)c(Cl)c2)no1 showed a melting point of 202 to 204 °C.
Work on CC1(C)CS(=O)(=O)CC(C)(C)N1N=O yielded a melting point of 184 °C.
For NCc1ccc(C2CCN(c3c(F)c(N)c4c(=O)c(C(=O)O)cn(C5CC5)c4c3F)C2)cc1 (stereo unspecified), the melting point was 225 to 227 °C.
With CC(C)n1c(=O)nc(-c2cccnc2)c2cc3c(cc21)OCO3 the melting point was 58 to 60 °C.
COc1ncc(C(F)(F)F)cc1-c1cccn2nc(Nc3ccc(C4CCN(CC(=O)N(C)C)CC4)cc3)nc12 showed a melting point of 122 to 124 °C.
Compound Cc1ccc(C2(Cl)c3ccccc3C(=O)c3ccccc32)cc1 has a melting point of 136 to 140 °C.
Compound COCNC(=S)n1nc(Oc2c(Cl)cc(C(F)(F)F)cc2Cl)cc1C has a melting point of 95 to 96 °C.
With COc1nc2ccccc2cc1NC(=O)N1CCN(c2cccc(C)c2C)CC1 the melting point was 174 to 175 °C.
O=C1CC(c2ccc(Cl)cc2)ON1CC(O)CN1CCOCC1 (stereo unspecified) gave a melting point of 121 to 123 °C.
COC(=O)c1ccc2c(c1)ncn2N gave a melting point of 194 to 195 °C.
Compound CCOC(=O)CCC(=O)c1cnc2c(OC)cccc2c1Nc1ccccc1C has a melting point of 210 to 211 °C.
With C#CCOc1cc2c(=O)cc(C(=O)OCC)n(CC#C)c2ccc1=O the melting point was 169 °C.
Work on COc1ccc(C2CN(Cc3ccccc3)Cc3c2ccc(OC)c3Cl)cc1OC (stereo unspecified) yielded a melting point of 88 to 91 °C.
With COc1cc2c(cc1OC)C(CNC=O)c1ccccc1CC2 (stereo unspecified) the melting point was 118 to 119 °C.
CCCCCCC(=O)N[C@@H]1N=C(c2ccccc2)c2ccccc2N(C)C1=O gave a melting point of 49 to 54 °C.
For Cc1nc2cc(C#N)ccc2n1-c1ccc(C(=O)N(C)[C@@H]2CCNC2)cc1, the melting point was 178 to 180 °C.
Work on FC(F)(F)c1ccc2nc3c(nc2c1)-c1cccc2cccc-3c12 yielded a melting point of 185 to 186 °C.
With CC(=O)OC(C)c1cc2c(s1)C(=O)c1c(C(C)OC(C)=O)csc1C2=O (stereo unspecified) the melting point was 180 to 182 °C.
With CC1(n2ncc(-c3ccc(S(C)(=O)=O)cc3)c(-c3ccc(F)cc3)c2=O)CCCC1 the melting point was 107 to 110 °C.
For CC(C)(C)OC(=O)Nc1cc(OC(C)(C)C)c(C#Cc2ccc(F)cc2)cc1N, the melting point was 183 °C.
Compound Cc1c(CC(=O)O)c2cc(C(=O)C(C)C)cc3c2n1CCC3 has a melting point of 162 °C.
Compound CC(c1ccco1)N(O)C(N)=O (stereo unspecified) has a melting point of 143 to 144 °C.
In the case of OCCCSc1nc2ccc(Cc3ccccc3)cc2[nH]1, the melting point is reported as 103 to 105 °C.
In the case of CCOC(=O)c1c(N(C)C)c2cc(C)ccc2n(Cc2ccccc2)c1=O, the melting point is reported as 96 to 103 °C.
In the case of CCOC(=O)c1ccc2c(c1)OC(c1cc(Cl)cc(Cl)c1)(c1cc(Cl)cc(Cl)c1)O2, the melting point is reported as 89 °C.
CO[C@H]1C(=O)N(S(C)(=O)=O)[C@H]2CCN(C(=O)OCc3ccccc3)[C@H]12 (relative stereo) gave a melting point of 146 to 149 °C.
Compound CN(CCCCCCCNC(=NCCSCc1csc(NC(=N)N)n1)NC#N)CCN(Cc1ccc(F)cc1)c1ccccn1 has a melting point of 118 °C.
Compound O=C(/C=C/c1c[nH]c2ccc(OCc3ccccc3)cc12)c1ccncc1 has a melting point of 218 to 221 °C.
Work on COC(=O)c1sc2ccc([N+](=O)[O-])cc2c1N yielded a melting point of 208 to 210 °C.
ClCc1coc(-c2ccc(Cl)s2)n1 gave a melting point of 90 to 91 °C.
With Fc1cc(F)cc(Cn2c(S)nc3ccccc32)c1 the melting point was 179 to 180 °C.
Nc1nc(OS(=O)(=O)Cl)nn1C(=O)Oc1ccccc1 showed a melting point of 164 °C.
Work on COCCN1CCc2ccc(OC)c(Nc3ncc(Cl)c(Nc4ccc(N5CCOCC5)cc4OC)n3)c2CC1 yielded a melting point of 68 to 80 °C.
CCCCCCCCCCCCC/C=C(/C(=O)Nc1ccc(C(=O)O)cc1)c1ccc2c(c1)C(C)(C)CCC2(C)C gave a melting point of 59 to 60 °C.
In the case of O=C(Cc1ccc(O)cc1)c1c(O)cc(O)cc1O, the melting point is reported as 259 °C.
Cc1nnc(CCl)n1-c1ccc(Cl)cc1C(=O)c1ccccc1 gave a melting point of 139 to 140 °C.
Compound O=Cc1ccc(OC2CCCC2)c(O)c1Br has a melting point of 107 to 109 °C.
With CCOC(=O)C1(NS(=O)(=O)c2ccc3c(Cl)cnc(NC(=N)N)c3c2)CCC1 the melting point was 165 to 169 °C.
CCC(=N)c1c(O)cc(-c2ccccc2)n(C)c1=O gave a melting point of 145 to 147 °C.
With CC1(C(=O)NN)C(=O)Nc2cc3[nH]c(-c4ccncc4)nc3cc21 (stereo unspecified) the melting point was > 300 °C.
For OCCc1ccc2c(c1)C(O)c1ccccc1CO2 (stereo unspecified), the melting point was 135 to 137 °C.
COC(=O)c1c(C)cc(OC)c(C)c1O showed a melting point of 87 to 90 °C.
CCc1noc(-c2cn(-c3cc(Cl)ccc3OCc3ccccc3)cn2)n1 showed a melting point of 100 to 102 °C.
With CCOCCn1cc2c(=O)[nH]c(=O)[nH]c2n1 the melting point was > 300 °C.
